Data taken from the NIST ThermoML archive (doi:10.1016/j.jct.2008.05.001).
Numbers after ± are expanded uncertainties.

Details: 293 K, 101.33 kPa, Pycnometric method

SMILES | mass density (Liquid) | mass density (Crystal)
CCC1COC(=O)O1 (configuration not stated) [1,2-butylene carbonate] | 1140 ± 10 kg/m3 | 
O=C1OCCO1 [ethylene carbonate] |  | 1320 ± 10 kg/m3
